system: SD rats; assay: Assay for the effect on urinary glucose excretion; assay type: in vivo, rat; conditions: overnight fasted male SD rats, oral 1 mg/kg, urine collected for 24 hours
Text: Assay for the Effect on Urinary Glucose Excretion
As experimental animals, overnight fasted SD rats (CHARLES RIVER LABORATORIES JAPAN. Inc., Crj:CD(SD)IGS, male, 7-8 weeks of age, 180-300 g) were used. The test compound was suspended with 0.5% methylcellulose solution and the suspension was used for administration. On the day before drug administration, the rats were transferred in metabolic cages and fasted from the evening. Throughout the study, the rats were given water ad libitum. The test compound was orally administered at the dose of 1 mg/kg and urine collection was performed for 24 hours after the compound administration. The rats were fed ad libitum from 4 hours after the compound administration. The volume of urine collected was measured and a part of urine was used as a sample for glucose concentration measurement. The samples were diluted as appropriate and the glucose concentrations were measured with Glucose CII-Test WAKO (Wako Pure Chemical Industries, Ltd.) and the amount of urinary glucose excretion per 200 g of body weight was calculated.

Q: For CCc1ccc(Cn2cc([C@@H]3O[C@H](CO)[C@@H](O)[C@H](O)[C@H]3O)c3c(C)cccc32)cc1 [Example 1, 1-(4-Ethylbenzyl)-3-(β-D-glucopyranosyl)-4-methyl-1H-indole], which “Amount of urinary excretion of glucose in 24 hours” value (“Amount” below) is on record?
A: 182 mg/200 g body weight

Q: With COc1ccc(Cn2cc([C@@H]3O[C@H](CO)[C@@H](O)[C@H](O)[C@H]3O)c3c(C)cccc32)cc1 [Example 2] as the compound, how does the “Amount” value read?
A: 27 mg/200 g body weight

Q: For CCc1ccc(Cn2cc([C@@H]3O[C@H](CO)[C@@H](O)[C@H](O)[C@H]3O)c3ccccc32)cc1 [Example 3], which “Amount” value is on record?
A: 15 mg/200 g body weight

Q: Which “Amount” value does the source give for CCc1ccc(Cn2cc([C@@H]3O[C@H](CO)[C@@H](O)[C@H](O)[C@H]3O)c3cccc(C)c32)cc1 [Example 5] here?
A: 76 mg/200 g body weight

Q: With CCc1ccc(Cn2cc([C@@H]3O[C@H](CO)[C@@H](O)[C@H](O)[C@H]3O)c3cc(C)ccc32)cc1 [Example 7] as the compound, how does the “Amount” value read?
A: 122 mg/200 g body weight

Q: For Cc1ccc2c(c1)c([C@@H]1O[C@H](CO)[C@@H](O)[C@H](O)[C@H]1O)cn2Cc1ccc(OC(C)C)cc1 [Example 11], which “Amount” value is on record?
A: 33 mg/200 g body weight

Q: With COc1ccc(Cn2cc([C@@H]3O[C@H](CO)[C@@H](O)[C@H](O)[C@H]3O)c3c(C)cccc32)c(F)c1 [Example 28] as the compound, how does the “Amount” value read?
A: 36 mg/200 g body weight

Q: Which “Amount” value does the source give for CCc1ccc(Cn2cc([C@@H]3O[C@H](CO)[C@@H](O)[C@H](O)[C@H]3O)c3cccc(F)c32)cc1 [Example 61] here?
A: 98 mg/200 g body weight

Q: With COc1ccc(Cn2cc([C@@H]3O[C@H](CO)[C@@H](O)[C@H](O)[C@H]3O)c3cccc(F)c32)cc1 [Example 63] as the compound, how does the “Amount” value read?
A: 213 mg/200 g body weight

Q: For OC[C@H]1O[C@@H](c2cn(Cc3ccc(OC(F)F)cc3)c3c(F)cccc23)[C@H](O)[C@@H](O)[C@@H]1O [Example 66], which “Amount” value is on record?
A: 24 mg/200 g body weight

Q: With OCCc1ccc(Cn2cc([C@@H]3O[C@H](CO)[C@@H](O)[C@H](O)[C@H]3O)c3cccc(F)c32)cc1 [Example 67] as the compound, how does the “Amount” value read?
A: 17 mg/200 g body weight

Q: Which “Amount” value does the source give for Cc1ccc(Cn2cc([C@@H]3O[C@H](CO)[C@@H](O)[C@H](O)[C@H]3O)c3cccc(Cl)c32)cc1 [Example 70] here?
A: 173 mg/200 g body weight

Q: Which “Amount” value does the source give for CCc1ccc(Cn2cc([C@@H]3O[C@H](CO)[C@@H](O)[C@H](O)[C@H]3O)c3cccc(Cl)c32)cc1 [Example 71] here?
A: 517 mg/200 g body weight

Q: COc1ccc(Cn2cc([C@@H]3O[C@H](CO)[C@@H](O)[C@H](O)[C@H]3O)c3cccc(Cl)c32)cc1 [Example 73] was tested. Which “Amount” value did it give?
A: 532 mg/200 g body weight

Q: How did the “Amount” value turn out when COc1ccc(Cn2cc([C@@H]3O[C@H](CO)[C@@H](O)[C@H](O)[C@H]3O)c3cccc(Cl)c32)c(F)c1 [Example 74] was run?
A: 629 mg/200 g body weight

Q: How did the “Amount” value turn out when CCOc1ccc(Cn2cc([C@@H]3O[C@H](CO)[C@@H](O)[C@H](O)[C@H]3O)c3cccc(Cl)c32)c(F)c1 [Example 75] was run?
A: 18 mg/200 g body weight

Q: For OCCc1ccc(Cn2cc([C@@H]3O[C@H](CO)[C@@H](O)[C@H](O)[C@H]3O)c3cccc(Cl)c32)cc1 [Example 78], which “Amount” value is on record?
A: 54 mg/200 g body weight

Q: For Cc1ccc(Cn2cc([C@@H]3O[C@H](CO)[C@@H](O)[C@H](O)[C@H]3O)c3cc(C)cc(F)c32)cc1 [Example 93], which “Amount” value is on record?
A: 275 mg/200 g body weight

Q: For CCc1ccc(Cn2cc([C@@H]3O[C@H](CO)[C@@H](O)[C@H](O)[C@H]3O)c3cc(C)cc(F)c32)cc1 [Example 94], which “Amount” value is on record?
A: 945 mg/200 g body weight

Q: Cc1cc(F)c2c(c1)c([C@@H]1O[C@H](CO)[C@@H](O)[C@H](O)[C@H]1O)cn2Cc1ccc(O)cc1 [Example 95] was tested. Which “Amount” value did it give?
A: 40 mg/200 g body weight

Q: Which “Amount” value does the source give for COc1ccc(Cn2cc([C@@H]3O[C@H](CO)[C@@H](O)[C@H](O)[C@H]3O)c3cc(C)cc(F)c32)cc1 [Example 96] here?
A: 588 mg/200 g body weight

Q: For COc1ccc(Cn2cc([C@@H]3O[C@H](CO)[C@@H](O)[C@H](O)[C@H]3O)c3cc(C)cc(F)c32)c(F)c1 [Example 97], which “Amount” value is on record?
A: 507 mg/200 g body weight

Q: Cc1cc(F)c2c(c1)c([C@@H]1O[C@H](CO)[C@@H](O)[C@H](O)[C@H]1O)cn2Cc1ccc(CCO)cc1 [Example 99] was tested. Which “Amount” value did it give?
A: 47 mg/200 g body weight

Q: Cc1ccc(Cn2cc([C@@H]3O[C@H](CO)[C@@H](O)[C@H](O)[C@H]3O)c3cc(C)cc(Cl)c32)cc1 [Example 102] was tested. Which “Amount” value did it give?
A: 933 mg/200 g body weight

Q: For Cc1cc(Cl)c2c(c1)c([C@@H]1O[C@H](CO)[C@@H](O)[C@H](O)[C@H]1O)cn2Cc1ccc(O)cc1 [Example 104], which “Amount” value is on record?
A: 349 mg/200 g body weight

Q: COc1ccc(Cn2cc([C@@H]3O[C@H](CO)[C@@H](O)[C@H](O)[C@H]3O)c3cc(C)cc(Cl)c32)cc1 [Example 105] was tested. Which “Amount” value did it give?
A: 1693 mg/200 g body weight

Q: With COc1ccc(Cn2cc([C@@H]3O[C@H](CO)[C@@H](O)[C@H](O)[C@H]3O)c3cc(C)cc(Cl)c32)c(F)c1 [Example 106] as the compound, how does the “Amount” value read?
A: 1910 mg/200 g body weight

Q: For Cc1cc(Cl)c2c(c1)c([C@@H]1O[C@H](CO)[C@@H](O)[C@H](O)[C@H]1O)cn2Cc1ccc(OC(F)F)cc1 [Example 108], which “Amount” value is on record?
A: 1229 mg/200 g body weight

Q: Which “Amount” value does the source give for COc1ccc(Cn2cc([C@@H]3O[C@H](CO)[C@@H](O)[C@H](O)[C@H]3O)c3cc(C)cc(C)c32)cc1 [Example 114] here?
A: 520 mg/200 g body weight

Q: For CCc1ccc(Cn2cc([C@@H]3O[C@H](CO)[C@@H](O)[C@H](O)[C@H]3O)c3c(C)ccc(F)c32)cc1 [Example 116], which “Amount” value is on record?
A: 24 mg/200 g body weight

Q: COc1ccc(Cn2cc([C@@H]3O[C@H](CO)[C@@H](O)[C@H](O)[C@H]3O)c3c(C)ccc(F)c32)cc1 [Example 118] was tested. Which “Amount” value did it give?
A: 12 mg/200 g body weight

Q: With COc1ccc(Cn2cc([C@@H]3O[C@H](CO)[C@@H](O)[C@H](O)[C@H]3O)c3c(C)ccc(Cl)c32)cc1 [Example 124] as the compound, how does the “Amount” value read?
A: 37 mg/200 g body weight

Q: COc1ccc(Cn2cc([C@@H]3O[C@H](CO)[C@@H](O)[C@H](O)[C@H]3O)c3c(C)ccc(Cl)c32)c(F)c1 [Example 125] was tested. Which “Amount” value did it give?
A: 50 mg/200 g body weight

Q: CCOc1ccc(Cn2cc([C@@H]3O[C@H](CO)[C@@H](O)[C@H](O)[C@H]3O)c3cccc(F)c32)cc1 [Example 144] was tested. Which “Amount” value did it give?
A: 251 mg/200 g body weight

Q: With CC(C)Oc1ccc(Cn2cc([C@@H]3O[C@H](CO)[C@@H](O)[C@H](O)[C@H]3O)c3cccc(F)c32)cc1 [Example 145] as the compound, how does the “Amount” value read?
A: 11 mg/200 g body weight

Q: With CCOc1ccc(Cn2cc([C@@H]3O[C@H](CO)[C@@H](O)[C@H](O)[C@H]3O)c3cccc(Cl)c32)cc1 [Example 146] as the compound, how does the “Amount” value read?
A: 733 mg/200 g body weight

Q: Which “Amount” value does the source give for CC(C)Oc1ccc(Cn2cc([C@@H]3O[C@H](CO)[C@@H](O)[C@H](O)[C@H]3O)c3cccc(Cl)c32)cc1 [Example 147] here?
A: 295 mg/200 g body weight

Q: CCOc1ccc(Cn2cc([C@@H]3O[C@H](CO)[C@@H](O)[C@H](O)[C@H]3O)c3cc(C)cc(F)c32)cc1 [Example 156] was tested. Which “Amount” value did it give?
A: 784 mg/200 g body weight

Q: How did the “Amount” value turn out when CCOc1ccc(Cn2cc([C@@H]3O[C@H](CO)[C@@H](O)[C@H](O)[C@H]3O)c3cc(C)cc(Cl)c32)cc1 [Example 158] was run?
A: 1708 mg/200 g body weight

Source: patent publication US7750145B2, “1-substituted-3-β-D-glucopyranosylated nitrogenous hetero-cyclic compounds and medicines containing the same” (Kissei Pharmaceutical Co., Ltd., priority 2004, dated 2010)
